The values below come from patent US6979572B1, “Compositions and methods for inhibiting inward-rectifier potassium channels” (Trustees of the University of Pennsylvania, priority 1998, dated 2005).

Experiment [1] deals with T1, ROMK1 inward-rectifier K+ channel (Rattus norvegicus, UniProt P35560).
T1 sequence (P35560 1-391): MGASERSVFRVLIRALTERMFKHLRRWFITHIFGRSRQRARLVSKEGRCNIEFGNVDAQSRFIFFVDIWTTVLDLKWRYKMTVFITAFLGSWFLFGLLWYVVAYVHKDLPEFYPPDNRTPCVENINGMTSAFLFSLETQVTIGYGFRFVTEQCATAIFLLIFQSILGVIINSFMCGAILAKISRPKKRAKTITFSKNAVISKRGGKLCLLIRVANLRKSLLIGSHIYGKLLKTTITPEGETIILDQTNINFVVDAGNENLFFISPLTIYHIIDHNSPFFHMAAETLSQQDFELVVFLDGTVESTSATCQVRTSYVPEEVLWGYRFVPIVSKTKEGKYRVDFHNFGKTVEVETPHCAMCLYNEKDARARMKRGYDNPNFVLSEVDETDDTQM
As to conditions: literature values; read-out: Kd for block of ROMK1; cited from earlier work.

A further experiment concerns the target T2, ROMK1 channel (Rattus norvegicus, UniProt P35560).
T2 construct: expressed in transfected cells; host or cells: Xenopus laevis oocytes (cRNA injection)
T2 sequence (P35560 1-391): T1 sequence (P35560 1-391)
Description: Two-electrode voltage clamp of wild-type ROMK1 channel in Xenopus oocytes. Type of experiment: cell-based. The procedure:
Oocytes harvested from Xenopus laevis frogs were digested with collagenase (2 mg/mL) in a solution containing: NaCl, 82.5 mM; KCl, 2.5 mM; MgCl2, 1.0 mM; HEPES, 5.0 mM (pH 7.6) and were agitated on a platform shaker at a rate of 80 rpm for 90 minutes. The oocytes were then rinsed thoroughly with and stored in a solution containing: gentamicin, 50 μg/mL; NaCl, 96 mM; KCl, 2 mM; CaCl2, 1.8 mM; MgCl, 1 mM; HEPES, 5 mM (pH 7.6). Defolliculated oocytes were selected at least 2 hours after the collagenase digestion. To express channels, the corresponding cRNA was directly injected into oocytes. To express the GIRK1/4 channel, GIRK1 and GIRK4 cRNAs were co-injected with either M2 or M4 receptor cRNA. All injections were carried out at least 16 hours after the collagenase treatment. The injected oocytes were stored in an 18° C. incubator.
All three inward-rectifier K^+ channels, GIRK1/4, ROMK1, and IRK1, were studied using a two-electrode voltage clamp amplifier (Oocyte Clamp OC-725C, Warner Instruments Corp.). The resistance of electrodes filled with 3 M KCl were 0.2–0.4 M Ω. To elicit current through the channel, the membrane potential of oocytes was stepped to −80 mV (100–125 ms) and then to +80 mV (100–125 ms) from the holding potential of 0 mV. […] Tertiapin concentration was calculated using an extinction coefficient 6.1 mM^−1 cm^−1 at 280 nm wavelength. […]
Background: Two-electrode voltage clamp is typically applied to oocytes expressing channels or transporters.

Square brackets hold non-standard residues; d marks the D form. Ends that are not written are not given here. Met(O) = CS(=O)CC[C@H](N)C(=O)O

What is called Kd is the constant that tells how readily two partners part at equilibrium. In the case of Δ-dendrotoxin, the Kd in experiment [1] is 150 nM.

With “oxidized form of tertiapin: tertiapin whose methionine residue M13 has become oxidized (ALCNCNRIIIPH[Met(O)]CWKKCGKK; disulfide (positions not given here); ends not checked; UniProt P56587 1-21, looked up)”, the “sensitivity / affinity of the ROMK1 channel, in words” value in the experiment with ROMK1 channel is recorded as “lower affinity than the non-oxidized form”.
